Data published in patent publication US11459337B2, “Isothiazolo[5,4-D]pyrimidine compound as IRAK4 inhibitor” (priority 2018, dated 2022).

Assays:
THP-1 cells = assay: TNF-α ELISA assay in LPS-stimulated THP-1 cells; assay type: cell-based, human; conditions: Homo sapiens, THP-1, 18 h, TNF-α in supernatant, 150 ng/mL LPS
Procedure: TNF-α ELISA Assay in THP-1 Cells THP-1 human acute unicellular leukemia cells were purchased from ATCC (Cat #TIB-202) and incubated in a 37° C., 5% CO2 incubator. The medium was RPMI1640 (Gibco, Cat #22400-105), the supplementary was 10% FBS (Gibco, Cat #10091148); 1% PenStrep (Gibco, Cat #15140); 0.05 mM 2-mercaptoethanol (Sigma, Cat #M6250). TNF-α content in the culture supernatant was measured by a TNF-α Elisa kit. TNF-α was produced by stimulation of THP-1 cells with 150 ng/mL LPS (Sigma, Cat #L6529). Normal THP-1 cells in logarithmic phase were inoculated in 96-well plates (Corning #3599) at a certain concentration (1×10^5/100 μL) and then incubated in an incubator. After two hours, 16.7 μL of test compound of different concentrations (8×final concentration) was added and the mixture was incubated. After one hour, 16.7 μL of 1200 ng/mL LPS was added and the mixture was incubated. After 18 hours, the culture was centrifuged and the supernatant was collected. The TNF-α content was measured by a TNF-α Elisa kit. Finally, the OD signals (OD450-OD570) were read on an envision plate reader. The OD450-OD570 signals were converted to percent inhibition. Inhibition %=(ZPE−sample)/(ZPE−HPE)×100. “HPE” represents the OD450-OD570 signal value of the control without LPS-stimulated cells, and “ZPE” represents the OD450-OD570 signal value of the control with LPS-stimulated cells. IC50 values for compounds were calculated by XLFit in the Excel. Y=Bottom+(Top−Bottom)/(1+(IC50/X)^HillSlope). Equation: […]

human IRAK4 = human IRAK4 (Homo sapiens (Human), UniProt Q9NWZ3); assay: 33P-labeled kinase activity assay (Reaction Biology Corp), in vitro enzymatic activity; assay type: biochemical; conditions: 20 μM ATP, 3 nM kinase, MBP substrate
human IRAK4, sequence (Q9NWZ3 whole entry): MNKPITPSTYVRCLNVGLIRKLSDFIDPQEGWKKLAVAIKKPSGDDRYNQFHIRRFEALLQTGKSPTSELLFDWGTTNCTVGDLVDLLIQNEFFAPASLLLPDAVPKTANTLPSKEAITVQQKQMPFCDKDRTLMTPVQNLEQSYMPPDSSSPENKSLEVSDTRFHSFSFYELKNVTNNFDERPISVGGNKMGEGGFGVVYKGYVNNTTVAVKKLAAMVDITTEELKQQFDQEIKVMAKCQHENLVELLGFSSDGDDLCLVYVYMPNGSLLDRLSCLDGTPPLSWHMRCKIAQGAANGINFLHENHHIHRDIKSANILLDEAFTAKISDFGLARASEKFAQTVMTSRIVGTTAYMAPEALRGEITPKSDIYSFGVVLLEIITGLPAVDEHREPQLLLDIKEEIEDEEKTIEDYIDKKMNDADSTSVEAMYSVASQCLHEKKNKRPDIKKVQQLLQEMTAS
Procedure: The inhibitory activity of the test compounds against human IRAK4 was evaluated by measuring IC50 values in a ^33P-labeled kinase activity assay (Reaction Biology Corp). Buffer conditions: 20 mM Hepes (pH 7.5), 10 mM MgCl2, 1 mM EGTA, 0.02% Brij35, 0.02 mg/mL BSA, 0.1 mM Na3VO4, 2 mM DTT, 1% DMSO. Procedures: The test compound was dissolved in DMSO at room temperature to prepare a 10 mM solution for later use. The substrate was dissolved in fresh buffer, to which the kinase was added and mixed well. The DMSO solution containing the test compound was added to the above mixed reaction system by an acoustic technique (Echo 550). The concentrations of the compounds in reaction system were 10 μM, 3.33 μM, 1.11 μM, 0.370 μM, 0.123 μM, 41.2 nM, 13.7 nM, 4.57 nM, 1.52 nM, and 0.508 nM. After 15 minutes of incubation, the reaction was started by adding ^33P-ATP (activity: 0.01 μCi/μL; the corresponding concentration is listed in Table 1). Supplier's catalog number, lot number and concentration information in the reaction system for IRAK4 and its substrate are listed in Table 1. After 120 minutes of reaction at room temperature, the resulting solution was loaded on P81 ion exchange chromatography paper sheet (Whatman #3698-915). After repeated washing with 0.75% phosphoric acid solution, the radioactivity of the phosphorylated substrate residue on the paper sheet was measured. The kinase activity data are shown as a comparison of the kinase activity of the test compound and the kinase activity of the blank (DMSO only) and a curve was fitted using Prism4 software (GraphPad) to give IC50 values, with the experimental results shown in Table 2. [table]

[1] = system: LPS-induced TNF-α secretion; assay: Pharmacodynamic study evaluating LPS-induced TNF-α secretion in SD rats; assay type: in vivo; conditions: FIG. 2, oral, 20 mpk, LPS 1 mg/kg i.p.
Procedure: Pharmacodynamic Study Evaluating […] (LPS)-Induced TNF-α Secretion in SD Rats SD rats were orally administered with a solvent, dexamethasone (DEX, 0.5 mg/kg) as positive control, and the test compound, and were intraperitoneally injected with LPS (1 mg/kg) 0.5 hours after the administration Animals were euthanized with CO2 2 hours after LPS injection. Cardiac blood was collected into EDTA-K2 vacutainers, and a part of the anticoagulated blood was centrifuged and the plasma was frozen at −80° C. Frozen plasma was thawed at room temperature and the concentration of TNF-α in the plasma was measured using ELISA kit. The experimental data were expressed using mean±SEM, and TNF-α levels were analyzed by One-way ANOVA. Significant differences were considered for p<0.05.

[2] = In vitro metabolic stability in liver microsome, dog; assay type: in vitro ADME; conditions: Dog liver microsomes, 1 μM compound, 0.5 mg/mL protein
Procedure: (§1) Metabolic Stability in Liver Microsome The test compounds at 1 μM were co-incubated with liver microsomes having a protein concentration of 0.5 mg/mL under the action of a reductive coenzyme II regeneration system in a 37° C. water bath. • 1) Positive controls included: testosterone (3A4 substrate), propylamine propiophenone (2D6 substrate), and diclofenac (2C9 substrate). The positive controls were incubated in the same condition as the test compounds. • 2) The reaction was stopped using a stop reagent containing the internal standard at time points of 0, 5, 10, 20, 30 and 60 minutes. […] CLint^mic: intrinsic microsomal clearance;

[3] = In vitro metabolic stability in liver microsome, rat; assay type: in vitro ADME; conditions: Rat liver microsomes, 1 μM compound, 0.5 mg/mL protein
Procedure: as §1

[4] = In vitro metabolic stability in liver microsome, human; assay type: in vitro ADME; conditions: Human liver microsomes, 1 μM compound, 0.5 mg/mL protein
Procedure: as §1

[5] = In vitro metabolic stability in liver microsome, monkey; assay type: in vitro ADME; conditions: Monkey liver microsomes, 1 μM compound, 0.5 mg/mL protein
Procedure: as §1

[6] = In vitro metabolic stability in liver microsome, mouse; assay type: in vitro ADME; conditions: Mouse liver microsomes, 1 μM compound, 0.5 mg/mL protein
Procedure: as §1

Cc1nsc2nc(Nc3cnn(C4CCOCC4)c3)nc(N[C@H]3CC[C@H](N4CCN(C5CC5)CC4)CC3)c12 [WX031]
IC50 (THP-1 cells): 0.317 µM
IC50 (human IRAK4): 0.0024 µM

Cc1nsc2nc(Nc3cnn(C4CCOCC4)c3)nc(NC3CCC(N4CCCNCC4)CC3)c12 (stereo not shown) [WX036]
IC50 (THP-1 cells): 4.16 µM
IC50 (human IRAK4): 0.0055 µM

Cc1nsc2nc(Nc3cnn(C4CCOCC4)c3)nc(NC3CCC(N4CCCN(C)CC4)CC3)c12 (stereo not shown) [WX037]
IC50 (THP-1 cells): 0.296 µM
IC50 (human IRAK4): 0.0092 µM

CC(=O)N1CCCN(C2CCC(Nc3nc(Nc4cnn(C5CCOCC5)c4)nc4snc(C)c34)CC2)CC1 (stereo not shown) [WX038]
IC50 (THP-1 cells): 0.216 µM
IC50 (human IRAK4): 0.0013 µM

COC(=O)N1CCCN(C2CCC(Nc3nc(Nc4cnn(C5CCOCC5)c4)nc4snc(C)c34)CC2)CC1 (stereo not shown) [WX039]
IC50 (THP-1 cells): 0.139 µM
IC50 (human IRAK4): 0.0079 µM

COC(=O)N1C2CC1CN([C@H]1CC[C@H](Nc3nc(Nc4cnn(C5CCOCC5)c4)nc4snc(C)c34)CC1)C2 [WX044]
IC50 (human IRAK4): 0.0407 µM
inhibitory effect on LPS-induced TNF-α secretion [1]: significant inhibitory effect

COC(=O)N1C[C@H]2C[C@@H]1CN2[C@H]1CC[C@H](Nc2nc(Nc3cnn(C4CCOCC4)c3)nc3snc(C)c23)CC1 [WX047]
IC50 (THP-1 cells): 0.889 µM
IC50 (human IRAK4): 0.0296 µM

Cc1nsc2nc(Nc3cnn(C4CCOCC4)c3)nc(N[C@H]3CC[C@H](N4CCNC(C)C4)CC3)c12 (stereo partly shown) [WX049]
IC50 (THP-1 cells): 0.516 µM
IC50 (human IRAK4): 0.0112 µM

Cc1nsc2nc(Nc3cnn(C4CCOCC4)c3)nc(N[C@H]3CC[C@H](N4CCNC5(CC5)C4)CC3)c12 [WX050]
IC50 (THP-1 cells): 0.689 µM
IC50 (human IRAK4): 0.0134 µM

N#CCc1nsc2nc(Nc3cnn(C4CCOCC4)c3)nc(N[C@H]3CC[C@H](N4CCOCC4)CC3)c12 [WX055]
IC50 (THP-1 cells): 0.165 µM
IC50 (human IRAK4): 0.0117 µM

c1cc2c(N[C@H]3CC[C@H](N4CCOCC4)CC3)nc(Nc3cnn(C4CCOCC4)c3)nc2s1 [WXR1, reference compound]
Re1 h % (residue of test compound at 1 hour) [2]: 5.5%
Re1 h % (residue of test compound at 1 hour) [3]: 32.3%
Re1 h % (residue of test compound at 1 hour) [4]: 23.7%
Re1 h % (residue of test compound at 1 hour) [5]: 0.6%
Re1 h % (residue of test compound at 1 hour) [6]: 0.0%
